# Test results taken from patent US8232253B2, “Treatment of lung cancer” (Ramot at Tel-Aviv University Ltd., priority 2006, dated 2012).
# Tests used:
# [1] = tested on: A549 cells; assay: BrdU incorporation into DNA; type: cell-based; details: Homo sapiens, 75 μM FTS, 48 h, read-out: inhibition of incorporation of BrdU into DNA relative to vehicle-treated control
# Method: A549 cells were plated on glass cover slips (1.2×10^5 cells/well in 6-well plates) and incubated for 24 h in medium containing 5% FCS. The cells were then incubated for 24 h with or without 75 μM FTS and then for 24 h with 5-bromo-2-deoxyuridine (BrdU) (Zymed BrdU labeling kit, 1:100 dilution). Cells were fixed with 4% paraformaldehyde, permeabilized with 0.2% Triton X-100 (BDH, Poole, UK), washed with PBS, blocked with TBS Tween (TBST; 50 mM Tris, pH 7.4, 100 mM NaCl, 0.1% Tween 20) containing 1% bovine serum albumin (BSA), treated sequentially with 2 N HCl and 0.1 M sodium borate pH 8.5, and then blocked with goat γ-globulin and washed with TBST-BSA (described above). The cells were then labeled successively with mouse anti-BrdU antibody (Ab) (Zymed kit; 1:50 dilution), biotinylated rabbit anti mouse IgG (5 μg/ml), and Cy3-streptavidin (1.5 μg/ml). Cells with BrdU-stained nuclei were counted under a fluorescence microscope.
# To investigate the effect of FTS on lung cancer cell proliferation, we first incubated A549 cells that harbor the activated K-ras gene mutated at codon 12. A549 cells are commonly used as a model for drug screening. […] The number of cells in the FTS-treated cultures was determined by direct counting of A549 cells grown for 6 days in the presence of FTS and was expressed as a percentage of the number recorded in the controls. […]
# [2] = tested on: A549 cells; assay: Immunofluorescence of cytoskeleton (F-actin, vinculin) and cell morphology; type: cell-based, human; details: 75 μM FTS, 48 h
# Method: A549 cells were plated on glass cover slips (2×10^4 cells/well in 6-well plates), incubated for 24 h in medium containing 5% FCS, and then incubated for 48 h with or without 75 μM FTS. The cells were fixed and permeabilized at room temperature by successive incubations with 3.7% formaldehyde (20 min) and 0.2% Triton X-100 in PBS (5 min), then washed for 5 min with UB buffer (150 mM NaCl, 10 mM Tris pH 7.6, and 0.2% sodium azide in PBS) and blocked with 2% BSA in UB (UBB, 5 min). The fixed cells were incubated successively with naïve goat IgG for 30 min (200 μg/ml, Jackson ImmunoResearch Laboratories, West Grove, Pa.), anti-vinculin Ab for 1 h (1:400, Sigma-Aldrich), goat anti-mouse Cy2-conjugated Ab for 1 h (1:200, Jackson), and rhodamine-labeled phalloidin for 1 h (1:1000, Sigma-Aldrich). Between each of the above steps the cells were washed for 30 min with UBB. Lastly, the cover slips were washed with UB, dried, and mounted onto the slides with Muviol. F-actin (red) and vinculin (green) were visualized with a Zeiss LSM 510 confocal microscope fitted with non-leaking green and red fluorescence filters. Co-localization was assessed using the co-localization function of the LSM 510 software. […]
# [3] = target: T1, K-Ras-GTP (Homo sapiens, UniProt P01116, G12S); assay: K-Ras-GTP GST-RBD pull-down assay and immunoblotting in A549 cells; type: cell-based
# T1 construct: endogenous in cells; host or cells: A549 (ATCC)
# T1 sequence (P01116 whole entry G12S): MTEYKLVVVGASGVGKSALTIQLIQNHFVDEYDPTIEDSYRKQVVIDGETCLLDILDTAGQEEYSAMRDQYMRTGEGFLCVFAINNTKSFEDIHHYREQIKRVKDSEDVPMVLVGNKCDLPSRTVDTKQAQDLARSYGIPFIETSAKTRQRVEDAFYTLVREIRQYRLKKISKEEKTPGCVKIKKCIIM
# Method: A549 cells were incubated for 24 or 48 h with or without FTS, as described above, and then lysed with lysis buffer as described in Haklai, R., Gana-Weisz, M., Elad, G., et al., Biochemistry 37:1306-14 (1998). The apparent amounts of K-Ras-GTP in 0.5 mg protein of total cell lysates were determined by the glutathione-S-transferase (GST)-RBD (Ras-binding domain of Raf) pull-down assay, as described in (Elad-Sfadia, G., Haklai, R., Ballan, E., Gabius, H. J., Kloog, Y., J Biol Chem 277:37169-75 (2002). The apparent amounts of Rac1-GTP and of RhoA-GTP, each in 2 mg protein of total cell lysates, were determined, respectively, by pull-down assays with GST-PBD (Rac1-binding domain of PAK1)-conjugated and GST-Rhotekin BD (Rho-binding domain of Rhotekin)-conjugated beads [Benard, V., Bohl, B. P., Bokoch, G. M, J Biol Chem 274:13198-204 (1999); Fiordalisi, J. J., Keller, P. J., Cox, A. D., Cancer Res 66:3153-61 (2006). The pulled-down GTPases were subjected to SDS-PAGE followed by immunoblotting with the appropriate antibodies: anti K-Ras (1:30; Calbiochem, La Jolla, Calif.), anti Rac-1 (1:2500; Santa Cruz Biotechnology, Santa Cruz, Calif.), or anti RhoA (1:700; Upstate Biotechnology, Lake Placid, N.Y.). Immunoblots were exposed to 1:2500 peroxidase-goat anti-mouse IgG. Levels of phospho-ERK and phospho-Akt were determined by immunoblotting [Haklai, R., Gana-Weisz, M., Elad, G., et al., supra.] using rabbit anti phospho-ERK1/2 Ab (Santa Cruz Biotechnology, Santa Cruz, Calif.) and rabbit anti phospho-Akt Ab (Cell Signaling, Beverly, Mass.). Protein bands were visualized by enhanced chemiluminescence and quantified by densitometry using ImageJ computer software (National institutes of Health, Bethesda, Md.).
# To determine whether active K-Ras-GTP and its prominent downstream signals to ERK and Akt were inhibited in A549 cells, and if so, whether the […] growth of the cells was also affected, two experiments were performed. First, A549 cells were incubated in the absence and in the presence of various concentrations of FTS and K-Ras-GTP, phospho-ERK and phospho-Akt levels were measured.
smiles,measurement,setting,value
"CC(C)=CCC/C(C)=C/CC/C(C)=C/CSc1ccccc1C(=O)O [FTS, S-farnesylthiosalicylic acid]",inhibition at 75 µM,[1],56.7 ± 17.4%
same,cells that had undergone changes in cell morphology,[2],more than 80%
same,reduction in K-Ras-GTP (mean±SD),[3]; 25 μM FTS,23±15.3%
same,reduction in K-Ras-GTP (mean±SD),[3]; 50 μM FTS,37±3.7%
same,reduction in K-Ras-GTP (mean±SD),[3]; 75 μM FTS,46±1.9%
same,effective concentration range for the reduction in K-Ras-GTP,[3]; A549 cells,50 to 75 µM
same,effect on the total amount of Ras,"[3]; A549 cells, various FTS concentrations",no significant effect
